Assay [1] deals with WiDr-R cells (colon cancer cells; chemically-induced SF3B1 R1074H mutant). Put plainly: Cell viability assay (CellTiter-Glo, 72 hr), resistant WiDr-R cells (counter-screen). The class given is cell-based. Particulars: WiDr-R cells (SF3B1 R1074H mutation, resistant); read-out: WiDr-R GI50. An outline of the steps: (§1)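 Cells at 2000/well were exposed to 9 compound concentrations (0.1% DMSO) in duplicate or triplicate for 72 hr at 37 °C. ATP was read by CellTiter-Glo against a time-zero plate and DMSO control growth. Percent growth/viability was plotted against concentration to give Emax; negative values indicate lethality.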

The next assay concerns the target T1, SF3b complexes (Homo sapiens, UniProt O75533+Q7RTV0).
T1 construct: endogenous in cells
Put plainly: Scintillation proximity assay (SPA) with [3H]-labelled pladienolide probe. The class given is binding. Particulars: wt SF3B1, read-out: SPA (wt SF3B1 cells) IC50. As to the method: Batch immobilization of anti-SF3B1 antibody (MBL) to anti-mouse PVT SPA scintillation beads (PerkinElmer) was prepared as follows: for every 2.5 mg of nuclear extracts, 5 μg anti-SF3B1 antibody and 1.5 mg of beads were mixed in 150 μl PBS. The antibody-bead mixture was incubated for 30 min at RT and centrifuged at 18,000 g for 5 min. 150 μl PBS was used to resuspend every 1.5 mg antibody-bead mixture. The beads were suspended and added to the prepared nuclear extracts. The slurry was incubated for 2 h at 4° C. with gentle mixing. The beads were then collected by centrifuging at 18,000 g for 5 min, and washed twice with PBS+0.1% Triton X-100. After a final centrifugation step, every 1.5 mg of beads was suspended with 150 μl of PBS. The SF3b complexes were tested for [^3H]-labelled pladienolide probe binding ([^3H]-PB), synthesized as previously described (Kotake et al., 2007). 100 μL binding reactions were prepared with 50 μl bead slurry and by adding varying concentrations of PB or PB—OH, and after 30 min pre-incubation, 2.5 nM [^3H]—PB was added. The mixture was incubated for 30 min, and luminescence signals were read using a MicroBeta2 Plate Counter (PerkinElmer). Prism 6 (Graphpad) was used for non-linear regression curve fitting of the data.

Assay [2] has as its system Panc 05.04 cells (pancreatic cancer cells; Q699H and K700E mutations in SF3B1). Description: Cell viability assay (CellTiter-Glo, 72 hr), Panc 05.04 cells. Particulars: Panc 05.04 cells (mutant SF3B1); for Emax: maximum achievable response in tested dose range, negative value = cellular lethality, read-out: Panc 05.04 (mt SF3B1 cells) Emax (%); for GI50: read-out: Panc 05.04 (mt SF3B1 cells), GI50. The class given is cell-based. In short, it runs like this:
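Panc 05.04 cells treated 72 hr at 37 °C with 9 compound concentrations (0.1% DMSO), duplicate or triplicate. ATP read by CellTiter-Glo; growth inhibition/viability calculated against a time-zero plate and DMSO control growth. Emax is the maximal response over the tested range, negative values meaning lethality.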

For assay [3], the system named is WiDr cells (colon cancer cells; wildtype SF3B1). Description: Cell viability assay (CellTiter-Glo, 72 hr), WiDr cells. Particulars: Homo sapiens; WiDr cells (wildtype SF3B1); read-out: WiDr GI50. The class given is cell-based. In short, it runs like this:
as §1

The structures appear in SMILES notation.

Take `C/C(=C\C=C\[C@@H](C)COC(=O)N1CCCC1)[C@H]1OC(=O)C[C@H](O)CC[C@@](C)(O)[C@@H](OC(=O)N2CCN(C3CCCCCC3)CC2)/C=C/[C@@H]1C`: the GI50 in assay [1] was greater than 1000 nM; in assay [2], 1.66 nM; in assay [3], 2.54 nM. On SF3b complexes, the IC50 stood at 2.83 nM. Moreover, the Emax in assay [2] is -87.3%.
As for `C/C(=C\C=C\C(C)c1cccc(N2CCCC2)n1)[C@H]1OC(=O)C[C@H](O)CC[C@@](C)(O)[C@@H](OC(=O)N2CCN(C3CCCCCC3)CC2)/C=C/[C@@H]1C` (stereo partly drawn), the figures for the GI50 in assay [1], in assay [2] and in assay [3] were greater than 1000 nM, 122 nM and 320 nM, respectively. In addition, at SF3b complexes, the IC50 was 21.9 nM. In addition, the Emax in assay [2] was -95.3%.
In the case of `C/C(=C\C=C\[C@@H](C)c1ccccn1)[C@H]1OC(=O)C[C@H](O)CC[C@@](C)(O)[C@@H](O)/C=C/[C@@H]1C`, at SF3b complexes, the IC50 is greater than 1200 nM. In assay [2], the Emax turned out to be 49.5% and the GI50 is 3980 nM.
`CC[C@H](O)[C@@H](C)[C@H]1O[C@@H]1C[C@H](C)/C=C/C=C(\C)[C@H]1OC(=O)C[C@H](O)CC[C@@](C)(OC(=O)N2CCNCC2)[C@@H](OC(C)=O)/C=C/[C@@H]1C`: the IC50 on SF3b complexes came out at 2.08 nM. For the same molecule, in assay [2], the Emax was -78.9% and the GI50 was 0.86 nM.
Turning to `CC[C@H](O)[C@@H](C)[C@H]1O[C@@H]1C[C@H](C)/C=C/C=C(\C)[C@H]1OC(=O)C[C@H](O)CC[C@@](C)(OC)[C@@H](OC(=O)N2CCN(C)CC2)/C=C/[C@@H]1C`, the IC50 on SF3b complexes was found to be 1.52 nM.
`CC(=O)O[C@H]1/C=C/[C@H](C)[C@@H](/C(C)=C/C=C/C(c2ccccn2)C(C)C)OC(=O)C[C@H](O)CC[C@@]1(C)O` (stereo partly drawn): the IC50 on SF3b complexes turned out to be 20.9 nM.
In the case of `CC[C@H](O)[C@@H](C)[C@H]1O[C@@H]1C[C@@](C)(O)/C=C/C=C(\C)[C@H]1OC(=O)C[C@H](O)CC[C@@](C)(OC(C)=O)[C@@H](OC(=O)N2CCN(CCO)CC2)/C=C/[C@@H]1C`, the IC50 on SF3b complexes was 24.3 nM.
Regarding `C/C(=C\C=C\[C@@H](C)c1ccccn1)[C@H]1OC(=O)C[C@H](O)CC[C@@](C)(O)[C@@H](OC(=O)N2CCC(N3CC4CCC(C3)C4(F)F)CC2)/C=C/[C@@H]1C`, on SF3b complexes, the IC50 came out at 47.3 nM. Also, in assay [2], the Emax is -90.3% and the GI50 was determined as 76.1 nM.
In the case of `CC[C@H](O)[C@@H](C)[C@H]1O[C@@H]1C[C@@](C)(O)/C=C/C=C(\C)[C@H]1OC(=O)C[C@H](O)CC[C@@](C)(OC)[C@@H](OC(=O)N2CCN(CCCC(=O)O)CC2)/C=C/[C@@H]1C`, on SF3b complexes, the IC50 was 14.6 nM.
Same read-out and setting: as for `CC[C@H](O)[C@@H](C)[C@H]1O[C@@H]1C[C@@](C)(O)/C=C/C=C(\C)[C@H]1OC(=O)C[C@H](O)CC[C@@](C)(OC(C)=O)[C@@H](OC(=O)N2C[C@@H]3C[C@H]2CN3)/C=C/[C@@H]1C`, the figure is 16 nM.
In the case of `CC[C@H](O)[C@@H](C)[C@H]1O[C@@H]1C[C@@](C)(O)/C=C/C=C(\C)[C@H]1OC(=O)C[C@H](O)CC[C@@](C)(OC(C)=O)[C@@H](OC(=O)N2CCNCC2)/C=C/[C@@H]1C`, the IC50 on SF3b complexes stood at 8.78 nM. Besides, in assay [2], the Emax was -73.2% and the GI50 is 26.8 nM.
Regarding `C\C(=C/C=C/C=C/[C@@H](C)c1ccccn1)C1OC(=O)C[C@H](O)CC[C@@](C)(O)[C@@H](OC(=O)N2CCN(C3CCCCCC3)CC2)/C=C/[C@@H]1C` (stereo partly drawn), the IC50 on SF3b complexes was found to be 120 nM. Further, in assay [2], the Emax was 11% and the 50% growth inhibitory concentration (GI50) came to 720 nM.
`C/C(=C\C=C\C(C)c1cccnc1)[C@H]1OC(=O)C[C@H](O)CC[C@@](C)(O)[C@@H](OC(=O)N2CCC(N3CCC(F)(F)CC3)CC2)/C=C/[C@@H]1C` (stereo partly drawn): on SF3b complexes, the IC50 is 30.9 nM. Besides, in assay [2], the Emax was -2.9% and the GI50 came out at 94.8 nM.
For the molecule `CC[C@H](O)[C@@H](C)[C@H]1O[C@@H]1C[C@H](C)/C=C/C=C(\C)[C@H]1OC(=O)C[C@H](O)CC[C@@](C)(OC(C)=O)[C@@H](OC(=O)N2CCNCC2)/C=C/[C@@H]1C`, the IC50 on SF3b complexes was determined as 2.12 nM. In assay [2], the Emax was -47.1% and the GI50 stood at 2.05 nM.
Turning to `CC[C@H](O)[C@@H](C)[C@H]1O[C@@H]1C[C@H](C)/C=C/C=C(\C)[C@H]1OC(=O)C[C@H](O)CC[C@@](C)(OC)[C@@H](OC(=O)N2CCNCC2)/C=C/[C@@H]1C`, on SF3b complexes, the IC50 came to 0.99 nM.
As for `CC(=O)O[C@H]1/C=C/[C@H](C)[C@@H](/C(C)=C/C=C/C(C)c2cccc(OCC(C)C)n2)OC(=O)C[C@H](O)CC[C@@]1(C)O` (stereo partly drawn), the figures for the GI50 in assay [1], in assay [2] and in assay [3] were greater than 10000 nM, 842 nM and 440 nM, respectively. Further, the Emax in assay [2] is -27.1%.
As for `CC(=O)O[C@H]1/C=C/[C@H](C)[C@@H](/C(C)=C/C=C/C(C)c2ccccc2)OC(=O)C[C@H](O)CC[C@@]1(C)O` (stereo partly drawn), the GI50 in assay [1] was greater than 10000 nM; in assay [2], 932 nM; in assay [3] it was 382 nM. Further, in assay [2], the Emax was determined as 12.3%.
With `CC[C@H](O)[C@@H](C)[C@H]1O[C@@H]1C[C@@](C)(O)/C=C/C=C(\C)[C@H]1OC(=O)C[C@H](O)CC[C@@](C)(OC)[C@@H](OC(=O)N(C)CCNC)/C=C/[C@@H]1C`, the IC50 on SF3b complexes was 18.3 nM.
On to `CC[C@H](O)[C@@H](C)[C@H]1O[C@@H]1C[C@@](C)(O)/C=C/C=C(\C)[C@H]1OC(=O)C[C@H](O)CC[C@@](C)(OC(=O)N2CCNCC2)[C@@H](OC(C)=O)/C=C/[C@@H]1C`, for which the 50% inhibitory concentration (IC50) at SF3b complexes is 5.92 nM. For the same molecule, in assay [2], the Emax is -74.2% and the GI50 stood at 23.5 nM.
On to `C/C(=C\C=C\[C@@H](C)COC(=O)N1CC[C@@H](O)C1)[C@H]1OC(=O)CCCC[C@@](C)(O)[C@@H](OC(=O)N2CCN(C)CC2)/C=C/[C@@H]1C`, for which the GI50 was greater than 1000 nM in assay [1], 4.44 nM in assay [2] and 11.2 nM in assay [3]. Further, the Emax in assay [2] was -94.6%.
In the case of `CC[C@H](O)[C@@H](C)[C@H]1O[C@@H]1C[C@@](C)(O)/C=C/C=C(\C)[C@H]1OC(=O)C[C@H](O)CC[C@@](C)(OC)[C@@H](OC(=O)N2CCNC(CCC(=O)O)C2)/C=C/[C@@H]1C` (stereo partly drawn), the IC50 at SF3b complexes came out at 29.2 nM.
Turning to `CCO[C@]1(C)CC[C@@H](O)CC(=O)O[C@H](/C(C)=C/C=C/[C@](C)(O)C[C@H]2O[C@@H]2[C@H](C)[C@@H](O)CC)[C@@H](C)/C=C/[C@@H]1OC(=O)N1CCNCC1`, the IC50 on SF3b complexes came to 9.23 nM. Also, in assay [2], the Emax is -75.4% and the GI50 is 1.76 nM.
Take `CC(=O)O[C@H]1/C=C/[C@H](C)[C@@H](/C(C)=C/C=C/C(C)(O)CCc2ccccc2)OC(=O)C[C@H](O)CC[C@@]1(C)O` (stereo partly drawn): the GI50 in assay [1] was greater than 10000 nM; in assay [2], 354 nM; in assay [3] it was 194 nM. Moreover, the Emax in assay [2] was -41.5%.
Take `C/C(=C\C=C\[C@@H](C)COC(=O)N1CCCC1)[C@H]1OC(=O)C[C@@H](O)CC[C@@](C)(O)[C@@H](OC(=O)N2CCN(C)CC2)/C=C/[C@@H]1C`: the GI50 was greater than 1000 nM in assay [1], 12.3 nM in assay [2] and 25 nM in assay [3]. For the same molecule, the Emax in assay [2] was -95.4%.
`C/C(=C\C=C\Cc1ccccn1)[C@H]1OC(=O)C[C@H](O)CC[C@@](C)(O)[C@@H](OC(=O)N2CCN(C3CCCCCC3)CC2)/C=C/[C@@H]1C`: the values for the GI50 in assay [1], in assay [2] and in assay [3] were greater than 1000 nM, greater than 4000 nM and 148 nM, respectively. The Emax in assay [2] is 63.5%.
Consider `C/C(=C\C=C\[C@@H](C)c1ccccn1)[C@H]1OC(=O)C[C@H](O)CC[C@@](C)(O)[C@@H](OC(=O)N2CC[N+](C)([O-])CC2)/C=C/[C@@H]1C`, for which the IC50 on SF3b complexes is 5.89 nM. In assay [2], the Emax was -81.2% and the GI50 was 45.4 nM.

These data come from US11926619B2, “Certain pladienolide compounds and methods of use” (EISAI R&D MANAGEMENT CO., LTD., priority 2018, dated 2024).
